{"source": "paper PMC10874388", "about": "“Cyclic peptides discriminate BCL-2 and its clinical mutants from BCL-XL by engaging a single-residue discrepancy” (Nature Communications, 2024)", "type_in_all_cases": "cell-based", "key": {"[1]": {"tested_on": "A549 cells overexpressing BCL-2 WT", "experiment": "Cell viability assay, A549 stably overexpressing BCL-2 WT", "conditions": "A549 BCL2-WT, single wells", "protocol": "(§1) Cell viability was measured using CellTiter-Glo® 2.0 Reagent (Promega, G9242). […] After different inhibitors were added into serum-free medium and cultured for 4 h (RS4:11 for 6 h), FBS were supplemented to 10% and then incubated totally for 24 h or 48 h. Finally, the IC50 values were calculated based on measurements using a microplate reader (Thermo, Varioskan LUX). Statistical analysis was performed using software GraphPad Prism 7.0.\n(§2) Lentivirus packaging vectors pMDLg/pRRE, pRSV-Rev, and pVSV-G were obtained from Prof. Han Jiahuai’s lab (Xiamen University). Lentiviruses were produced using 3rd-generation lentivirus packaging plasmids transiently transfected into HEK293T cells with the constructs of interest using 0.25 M CaCl2. Media was changed after 16 h, and supernatants containing infectious virus particles were harvested 24 h later. A second viral harvest was made following a further 24 h incubation with fresh media. Virus containing supernatant was filtered through a […], and stored at 4 °C or −80 °C until being used. Typically, A549 cells were seeded into 10 cm cell culture dishes at 4 ~ 8 × 10^5 cells/cm^2. An equivalent volume of virus containing culture medium was added along with polybrene (Sigma) to a final concentration of 10 µg/mL. Cells were incubated at 37 °C for 20 h, before they were washed and resuspended in fresh culture media. The expression level of BCL-2 was measured by qPCR and western blot methods."}, "[2]": {"tested_on": "Jurkat cells", "experiment": "Cell viability assay (CellTiter-Glo), Jurkat", "protocol": "(§3) The cell lines Jurkat (TIB-152), El4 (TIB-39), Daudi (ccl-213), RS4:11 (crl-1873), A549 (ccl-185), HepG2 (hb-8065) and PANC-1 (crl-1469) were purchased from ATCC (American Type Culture Collection), and MGC-803 (C6582) was purchased from Beyotime (https://www.beyotime.com/product/C6582.htm). […] Daudi and RS4:11 cells were cultured in RPMI-1640 medium (HyClone, SH30809.01) and 10% FBS (Gibco, 10099-141), whereas HepG2, MGC-803 and PANC-1 cells were cultured in MDEM (HyClone, SH30243.01). Cells were maintained at 37 °C under a humidified, 5% (v/v) CO2-containing atmosphere.\nas §1"}, "[3]": {"tested_on": "A549 cells overexpressing BCL-2 G101V", "experiment": "Cell viability assay, A549 stably overexpressing BCL-2 G101V", "conditions": "A549 BCL2/G101V, single wells", "protocol": "as §1, §2"}, "[4]": {"tested_on": "A549 cells (control)", "experiment": "Cell viability assay (CellTiter-Glo), normal A549 (control)", "conditions": "for raw luminescence reading / control inhibiton rate: A549 control, single wells", "protocol": "as §3, §1"}, "[5]": {"tested_on": "Daudi cells", "experiment": "Cell viability assay (CellTiter-Glo), Daudi", "conditions": "for raw viability signal, replicates: Daudi", "outline": "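Compounds added in serum-free medium for 4 h (RS4:11: 6 h), then FBS brought to 10% and incubation continued to 24 h or 48 h total at 37 °C, 5% CO2. Viability by CellTiter-Glo 2.0 luminescence; IC50 calculated.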"}}, "note": "“And” between values parts separate entries of the source, which are not always exact repeats. Equal entries are not always repeated."}
{"smiles": "O=C(c1cc(-c2cc3c(cc2C(=O)N2Cc4ccccc4C[C@H]2CN2CCOCC2)OCO3)n2c1CCCC2)N(c1ccccc1)c1ccc(O)cc1", "note": "[S55746]", "values": [{"measurement": "BCL2-WT inhibition rate", "setting": "[1]; 3.125 uM", "result": "2.61% and 4.22% and -4.33% and 4% and -2.32%"}, {"measurement": "raw luminescence reading", "setting": "[1]; 3.125 uM", "result": "861200 and 847000 and 922600 and 850300 and 904800 and 882000"}, {"measurement": "BCL2-WT inhibition rate", "setting": "[1]; 6.25 uM", "result": "12% and 11% and 10% and 8% and 15%"}, {"measurement": "raw luminescence reading", "setting": "[1]; 6.25 uM", "result": "774200 and 789000 and 799200 and 813400 and 753900 and 827800"}, {"measurement": "BCL2-WT inhibition rate", "setting": "[1]; 12.5 uM", "result": "25% and 23% and 22% and 26%"}, {"measurement": "raw luminescence reading", "setting": "[1]; 12.5 uM", "result": "665800 and 680900 and 679300 and 687300 and 653500 and 700500"}, {"measurement": "BCL2-WT inhibition rate", "setting": "[1]; 25 uM", "result": "32% and 31%"}, {"measurement": "raw luminescence reading", "setting": "[1]; 25 uM", "result": "602600 and 612300 and 599000 and 609600 and 600600 and 625900"}, {"measurement": "BCL2-WT inhibition rate", "setting": "[1]; 50 uM", "result": 45, "unit": "%"}, {"measurement": "raw luminescence reading", "setting": "[1]; 50 uM", "result": "489600 and 486500 and 483800 and 490200 and 490400 and 500400"}, {"measurement": "BCL2-WT inhibition rate", "setting": "[1]; 100 uM", "result": "51% and 50%"}, {"measurement": "raw luminescence reading", "setting": "[1]; 100 uM", "result": "433600 and 432600 and 430000 and 431900 and 437900 and 439800"}, {"measurement": "BCL2-WT inhibition rate", "setting": "[1]; 200 uM", "result": "51% and 53% and 52% and 50%"}, {"measurement": "raw luminescence reading", "setting": "[1]; 200 uM", "result": "434700 and 435900 and 419200 and 420100 and 446100 and 441200"}, {"measurement": "raw viability signal, replicates", "setting": "[2]; 1.5625 uM", "result": "1714000 and 1704000 and 1684000 and 1696000 and 1705000 and 1721000"}, {"measurement": "raw viability signal, replicates", "setting": "[2]; 3.125 uM", "result": "1448000 and 1401000 and 1343000 and 1377000 and 1375000 and 1402000"}, {"measurement": "raw viability signal, replicates", "setting": "[2]; 6.25 uM", "result": "1130000 and 1065000 and 1037000 and 1061000 and 1063000 and 1084000"}, {"measurement": "raw viability signal, replicates", "setting": "[2]; 12.5 uM", "result": "892300 and 842800 and 825800 and 842200 and 844000 and 860800"}, {"measurement": "raw viability signal, replicates", "setting": "[2]; 25 uM", "result": "395000 and 492300 and 419200 and 469600 and 467400 and 468800"}, {"measurement": "raw viability signal, replicates", "setting": "[2]; 50 uM", "result": "146000 and 160200 and 184200 and 190000 and 211800 and 228200"}, {"measurement": "BCL2/G101V inhibiton rate", "setting": "[3]; 3.125 uM", "result": "8% and 4.44% and 2.43% and 0.638% and 1% and 2%"}, {"measurement": "raw luminescence reading", "setting": "[3]; 3.125 uM", "result": "671600 and 698900 and 713600 and 726700 and 723800 and 716000"}, {"measurement": "BCL2/G101V inhibiton rate", "setting": "[3]; 6.25 uM", "result": "13% and 10% and 7.56% and 8% and 9%"}, {"measurement": "raw luminescence reading", "setting": "[3]; 6.25 uM", "result": "633100 and 639000 and 656800 and 676100 and 673100 and 668300"}, {"measurement": "BCL2/G101V inhibiton rate", "setting": "[3]; 12.5 uM", "result": "26% and 24% and 22% and 23% and 21%"}, {"measurement": "raw luminescence reading", "setting": "[3]; 12.5 uM", "result": "539700 and 558400 and 568300 and 571800 and 566400 and 579500"}, {"measurement": "BCL2/G101V inhibiton rate", "setting": "[3]; 25 uM", "result": "24% and 23% and 22% and 21%"}, {"measurement": "raw luminescence reading", "setting": "[3]; 25 uM", "result": "553400 and 560600 and 571800 and 579800 and 580700 and 578200"}, {"measurement": "BCL2/G101V inhibiton rate", "setting": "[3]; 50 uM", "result": "39% and 38% and 36% and 35% and 34%"}, {"measurement": "raw luminescence reading", "setting": "[3]; 50 uM", "result": "444500 and 453000 and 466400 and 464700 and 472100 and 479600"}, {"measurement": "BCL2/G101V inhibiton rate", "setting": "[3]; 100 uM", "result": "46% and 45% and 42%"}, {"measurement": "raw luminescence reading", "setting": "[3]; 100 uM", "result": "392800 and 395900 and 399700 and 397700 and 405800 and 422300"}, {"measurement": "BCL2/G101V inhibiton rate", "setting": "[3]; 200 uM", "result": "48% and 49% and 45% and 44%"}, {"measurement": "raw luminescence reading", "setting": "[3]; 200 uM", "result": "382600 and 370800 and 376000 and 400600 and 410900"}, {"measurement": "IC50", "setting": "[4]; 48 h, CellTiter-Glo, n = 6, read-out: IC50 A549 control (original cells)", "result": "74.1 ± 4.5", "unit": "µM"}, {"measurement": "raw luminescence reading", "setting": "[4]; 3.125 uM", "result": "680400 and 663400 and 563700 and 629300 and 626800 and 613100"}, {"measurement": "raw luminescence reading", "setting": "[4]; 6.25 uM", "result": "624000 and 698000 and 600600 and 640100 and 681300 and 637500"}, {"measurement": "raw luminescence reading", "setting": "[4]; 12.5 uM", "result": "490700 and 564100 and 465600 and 496900 and 544400 and 512100"}, {"measurement": "control inhibiton rate", "setting": "[4]; 25 uM", "result": "29% and 19% and 33% and 30% and 20% and 28%"}, {"measurement": "raw luminescence reading", "setting": "[4]; 25 uM", "result": "465600 and 531000 and 436600 and 460300 and 522200 and 471500"}, {"measurement": "control inhibiton rate", "setting": "[4]; 50 uM", "result": "45% and 39% and 47% and 38% and 42%"}, {"measurement": "raw luminescence reading", "setting": "[4]; 50 uM", "result": "357700 and 400600 and 345700 and 358400 and 403100 and 379300"}, {"measurement": "control inhibiton rate", "setting": "[4]; 100 uM", "result": "58% and 52% and 57% and 50% and 55%"}, {"measurement": "raw luminescence reading", "setting": "[4]; 100 uM", "result": "277600 and 315100 and 274100 and 282200 and 324600 and 296100"}, {"measurement": "control inhibiton rate", "setting": "[4]; 200 uM", "result": "64% and 60% and 63% and 57% and 61%"}, {"measurement": "raw luminescence reading", "setting": "[4]; 200 uM", "result": "232800 and 260700 and 234900 and 239800 and 281200 and 257400"}, {"measurement": "IC50", "setting": "[5]; 48 h treatment, CellTiter-Glo", "result": "10 ± 0.4", "unit": "µM"}, {"measurement": "raw viability signal, replicates", "setting": "[5]; 3.125 uM", "result": "1593 and 1426 and 1310 and 1450 and 1626 and 1878"}, {"measurement": "raw viability signal, replicates", "setting": "[5]; 6.25 uM", "result": "1078 and 1072 and 931.3 and 1127 and 973.9 and 1033"}, {"measurement": "raw viability signal, replicates", "setting": "[5]; 12.5 uM", "result": "455.5 and 506.4 and 780.1 and 751.1 and 919.0 and 638.7"}, {"measurement": "raw viability signal, replicates", "setting": "[5]; 25 uM", "result": "431.3 and 645.0 and 475.8 and 693.5 and 515.7 and 555.5"}, {"measurement": "raw viability signal, replicates", "setting": "[5]; 50 uM", "result": "362.9 and 364.8 and 354.3 and 237.1 and 424.9 and 407.4"}, {"measurement": "raw viability signal, replicates", "setting": "[5]; 100 uM", "result": "330.6 and 360.1 and 410.7 and 529.9 and 565.2 and 706.1"}]}
